These results are taken from ChEMBL document CHEMBL5113488, “Design, synthesis and antitumor activity study of a gemcitabine prodrug conjugated with a HDAC6 inhibitor” (Bioorg Med Chem Lett, 2022).

SMILES strings stand for the structures. The source made the active and inactive calls. The rule behind the calls is not given here.

For one data set, the system named is Huh-7. Put plainly: Antiproliferative activity against human Huh-7 cells assessed as inhibition of cell growth. The format is functional, cell-based.
For a further data set, the system named is HeLa. Put plainly: Antiproliferative activity against human HeLa cells assessed as inhibition of cell growth. The format is functional, cell-based.
The subject of data set [1] is MDA-MB-231. In words: Antiproliferative activity against human MDA-MB-231 cells assessed as inhibition of cell growth. The format is functional, cell-based.
Another data set relates to SK-OV-3. Put plainly: Antiproliferative activity against human SK-OV-3 cells assessed as inhibition of cell growth. The format is functional, cell-based.
The test system of another data set is A549. Put plainly: Antiproliferative activity against human A549 cells assessed as inhibition of cell growth. The format is functional, cell-based.
In the next data set the test system is PANC-1. In words: Antiproliferative activity against human PANC-1 cells assessed as inhibition of cell growth. The format is functional, cell-based.
The next data set has as its system HCT-116. Put plainly: Antiproliferative activity against human HCT-116 cells assessed as inhibition of cell growth. The format is functional, cell-based.
The subject of a further data set is SGC-7901. Put plainly: Antiproliferative activity against human SGC-7901 cells assessed as inhibition of cell growth. The format is functional, cell-based.
Data set [2] deals with 4T1. In words: Antiproliferative activity against mouse 4T1 cells assessed as inhibition of cell growth. The format is functional, cell-based.
For data set [3], the system named is MDA-MB-231. In words: Antiproliferative activity against human MDA-MB-231 cells assessed as inhibition of cell growth pretreated with hENT1 inhibitor, dipyridamole at 10 uM followed by compound addition. The format is functional, cell-based.
The test system of data set [4] is MDA-MB-231. Put plainly: Antiproliferative activity against human MDA-MB-231 cells assessed as inhibition of cell growth incubated in presence of 10 uM imatinib. The format is functional, cell-based.
Data set [5] relates to 4T1. In words: Antitumor activity against mouse 4T1 cells implanted in mouse assessed as tumor growth inhibition at 10 mg/kg administered for 15 days relative to control. The format is functional. To be noted: 4T1, 360 h, time 15 day, read-out: TGI.
Data set [6] has as its system MDA-MB-231. In words: Induction of DNA damage in human MDA-MB-231 cells assessed as increase in phospho-gamma-H2A.X expression level at 0.3 to 3 uM. To be noted: dose 0.3-3 µM. The format is functional, cell-based.
The target in data set [7] is T1, Cytochrome P450 3A2 (Rattus norvegicus, UniProt P05183).
T1 sequence (P05183 whole entry): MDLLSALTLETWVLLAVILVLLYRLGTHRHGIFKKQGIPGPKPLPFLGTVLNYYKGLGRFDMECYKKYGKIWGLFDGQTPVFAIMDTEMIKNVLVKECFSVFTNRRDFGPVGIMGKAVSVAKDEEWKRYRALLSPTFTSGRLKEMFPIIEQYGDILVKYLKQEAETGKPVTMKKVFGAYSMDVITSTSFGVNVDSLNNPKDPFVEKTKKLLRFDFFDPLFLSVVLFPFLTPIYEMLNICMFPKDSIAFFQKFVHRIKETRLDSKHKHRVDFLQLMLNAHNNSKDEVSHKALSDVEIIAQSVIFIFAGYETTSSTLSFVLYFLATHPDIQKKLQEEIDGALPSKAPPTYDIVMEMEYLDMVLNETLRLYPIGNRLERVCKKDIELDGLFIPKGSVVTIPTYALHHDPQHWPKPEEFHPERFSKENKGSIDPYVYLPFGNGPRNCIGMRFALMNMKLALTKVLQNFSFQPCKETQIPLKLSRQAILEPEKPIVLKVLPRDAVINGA
In words: Inhibition of CYP3A2 in rat liver microsomes using midazolam as substrate. The format is ADME, Microsome. In general terms: Liver microsomes are vesicles of endoplasmic reticulum, rich in cytochrome P450 enzymes.

The next data set deals with T2, Cytochrome P450 1A2 (Rattus norvegicus, UniProt P04799).
T2 sequence (P04799 whole entry): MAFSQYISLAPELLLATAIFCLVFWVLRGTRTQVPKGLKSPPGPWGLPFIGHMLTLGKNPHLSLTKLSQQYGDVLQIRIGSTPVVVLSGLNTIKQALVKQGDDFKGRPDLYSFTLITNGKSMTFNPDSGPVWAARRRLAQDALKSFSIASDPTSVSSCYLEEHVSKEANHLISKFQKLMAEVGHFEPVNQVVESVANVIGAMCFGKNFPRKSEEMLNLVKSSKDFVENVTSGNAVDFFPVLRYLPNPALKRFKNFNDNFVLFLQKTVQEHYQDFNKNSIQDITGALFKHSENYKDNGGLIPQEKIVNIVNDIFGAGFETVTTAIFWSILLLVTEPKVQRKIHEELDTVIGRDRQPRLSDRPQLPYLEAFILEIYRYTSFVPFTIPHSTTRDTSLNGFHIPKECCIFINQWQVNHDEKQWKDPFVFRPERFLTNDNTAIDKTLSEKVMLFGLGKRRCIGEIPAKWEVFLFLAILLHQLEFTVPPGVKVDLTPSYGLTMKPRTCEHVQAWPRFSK
Put plainly: Inhibition of CYP1A2 in rat liver microsomes using phenacetin as substrate. The format is ADME, Microsome.

For another data set, the target named is T3, Cytochrome P450 2D1 (Rattus norvegicus, UniProt P10633).
T3 sequence (P10633 whole entry): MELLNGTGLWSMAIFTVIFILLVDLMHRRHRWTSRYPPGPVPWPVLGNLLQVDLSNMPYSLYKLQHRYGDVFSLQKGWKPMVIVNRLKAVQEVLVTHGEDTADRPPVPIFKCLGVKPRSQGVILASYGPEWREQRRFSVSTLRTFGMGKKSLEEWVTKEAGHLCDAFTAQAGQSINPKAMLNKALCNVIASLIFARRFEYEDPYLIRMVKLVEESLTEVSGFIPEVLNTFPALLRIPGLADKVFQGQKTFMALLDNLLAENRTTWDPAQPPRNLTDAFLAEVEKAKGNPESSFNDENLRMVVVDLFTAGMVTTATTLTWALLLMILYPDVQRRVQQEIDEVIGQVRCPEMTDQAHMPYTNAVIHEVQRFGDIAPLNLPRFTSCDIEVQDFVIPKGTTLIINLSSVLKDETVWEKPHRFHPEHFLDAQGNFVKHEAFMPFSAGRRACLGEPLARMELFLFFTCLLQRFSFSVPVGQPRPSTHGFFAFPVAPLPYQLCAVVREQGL
Put plainly: Inhibition of CYP2D1 in rat liver microsomes using dextromethorphan as substrate. The format is ADME, Microsome.

The target in the next data set is Cytochrome P450 2E1 (Rattus norvegicus, UniProt P05182). In words: Inhibition of CYP2E1 in rat liver microsomes using chlorzoxazone as substrate. The format is ADME, Microsome.
The target in another data set is T4, Cytochrome P450 2C6 (Rattus norvegicus, UniProt P05178).
T4 sequence (P05178 whole entry): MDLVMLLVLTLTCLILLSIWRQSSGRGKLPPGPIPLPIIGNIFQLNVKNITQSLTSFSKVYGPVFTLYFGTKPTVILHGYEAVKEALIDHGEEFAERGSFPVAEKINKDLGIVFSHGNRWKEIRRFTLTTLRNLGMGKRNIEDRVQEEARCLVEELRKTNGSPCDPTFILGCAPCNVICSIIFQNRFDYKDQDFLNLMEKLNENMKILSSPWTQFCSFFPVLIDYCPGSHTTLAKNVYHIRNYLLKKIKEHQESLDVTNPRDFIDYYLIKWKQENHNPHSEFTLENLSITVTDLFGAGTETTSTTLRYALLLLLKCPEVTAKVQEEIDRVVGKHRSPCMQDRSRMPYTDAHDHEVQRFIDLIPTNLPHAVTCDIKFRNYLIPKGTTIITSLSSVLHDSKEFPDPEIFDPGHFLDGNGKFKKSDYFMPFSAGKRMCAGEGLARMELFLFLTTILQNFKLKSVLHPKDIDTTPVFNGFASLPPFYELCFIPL
In words: Inhibition of CYP2C6 in rat liver microsomes using diclofenac as substrate. The format is ADME, Microsome.

Data set [8] concerns 4T1. In words: Antitumor activity against mouse 4T1 cells implanted in mouse assessed as tumor growth inhibition at 5 mg/kg administered for 15 days relative to control. The format is functional. To be noted: 4T1, 360 h, time 15 day, read-out: TGI.
Data set [9] can be described thus: Toxicity in mouse implanted with mouse 4T1 cells assessed as body weight loss at 5 to 10 mg/kg administered for 15 days. The format is organism-based. Conditions: 4t1, 360 h, dose 5-10 mg/kg, time 15 day.
A short description of data set [10]: Toxicity in mouse implanted with mouse 4T1 cells assessed as pathological damage in heart at 5 to 10 mg/kg administered for 15 days by H and E staining based analysis. Conditions: 4t1, 360 h, dose 5-10 mg/kg, time 15 day. The format is organism-based.
A short description of data set [11]: Toxicity in mouse implanted with mouse 4T1 cells assessed as pathological damage in liver at 5 to 10 mg/kg administered for 15 days by H and E staining based analysis. The format is organism-based. Conditions: 4t1, 360 h, dose 5-10 mg/kg, time 15 day.
Data set [12] in a line: Toxicity in mouse implanted with mouse 4T1 cells assessed as pathological damage in kidney at 5 to 10 mg/kg administered for 15 days by H and E staining based analysis. The format is organism-based. Conditions: 4t1, 360 h, dose 5-10 mg/kg, time 15 day.
Data set [13] addresses T1, Cytochrome P450 3A2. Put plainly: Inhibition of CYP3A2-mediated metabolite formation in rat liver microsomes assessed as reduction in N-(1-((2R,4R,5R)-3,3-difluoro-4-hydroxy-5-(hydroxymethyl)tetrahydrofuran-2-yl)-2-oxo-1,2-dihydropyrimidin-4-yl)pentadecanamide metabolism. The format is ADME, Microsome.

Chain of Cytochrome P450 2E1 (P05182 whole entry): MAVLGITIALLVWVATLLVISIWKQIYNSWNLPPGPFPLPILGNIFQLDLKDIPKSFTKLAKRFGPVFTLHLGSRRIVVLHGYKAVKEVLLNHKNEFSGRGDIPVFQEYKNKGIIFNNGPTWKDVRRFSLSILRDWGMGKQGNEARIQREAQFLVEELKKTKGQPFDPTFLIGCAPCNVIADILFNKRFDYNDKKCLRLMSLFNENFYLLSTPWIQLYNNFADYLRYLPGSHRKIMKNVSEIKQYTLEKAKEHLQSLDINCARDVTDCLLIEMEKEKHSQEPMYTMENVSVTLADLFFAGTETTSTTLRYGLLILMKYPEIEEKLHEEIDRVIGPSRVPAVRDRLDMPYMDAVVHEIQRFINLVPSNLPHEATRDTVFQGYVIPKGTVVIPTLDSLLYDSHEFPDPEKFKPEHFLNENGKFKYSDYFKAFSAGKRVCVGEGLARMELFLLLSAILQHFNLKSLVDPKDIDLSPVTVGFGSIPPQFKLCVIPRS

In the case of `Nc1ccn([C@@H]2O[C@H](CO)[C@@H](O)C2(F)F)c(=O)n1` [GEMCITABINE], the IC50 is 740 nM in the data set on Huh-7; 1990 nM in the data set on HeLa; 2010 nM in the data set on MDA-MB-231 [1]; 440 nM in the data set with SK-OV-3; 380 nM in the data set on A549; 1340 nM with PANC-1. For the same compound, the IC50 worked out at 3050 nM in the data set on HCT-116; 9.32 µM in the data set on SGC-7901; 7.17 µM in the data set with 4T1 [2]; 7.21 µM in the data set with MDA-MB-231 [3]; 818 nM with MDA-MB-231 [4]. Further, the inhibition in vivo at 10 mg/kg in the data set on 4T1 [5] stood at 58.7%.

As to `CCCCCCCCCCCCCCC(=O)Nc1ccn([C@@H]2O[C@H](CO)[C@@H](O)C2(F)F)c(=O)n1`, the IC50 in the data set with Huh-7 was 120 nM; in the data set on HeLa it was 430 nM; in the data set with MDA-MB-231 [1], 140 nM; with SK-OV-3, 620 nM; with A549, 140 nM; in the data set on PANC-1 it was 1080 nM. Moreover, the IC50 with HCT-116 is 300 nM; in the data set on SGC-7901 it was 3.7 µM; with 4T1 [2], 0.66 µM; in the data set on MDA-MB-231 [3], 0.17 µM; with MDA-MB-231 [4], 72 nM. For the same compound, the result in the data set on MDA-MB-231 [6] was Active. Moreover, the Ki worked out at 52.6 µM on Cytochrome P450 3A2 [7]; 127 µM at Cytochrome P450 1A2; 179 µM at Cytochrome P450 2D1; 196 µM at Cytochrome P450 2E1; 203 µM on Cytochrome P450 2C6. Also, the inhibition in vivo at 5 mg/kg in the data set on 4T1 [8] amounted to 73.2%. Also, in the data set with 4T1 [5], the inhibition in vivo at 10 mg/kg was determined as 83.8%. The Activity entry in data set [9], in data set [10], in data set [11] and in data set [12] was “Non-Toxic” each time.

In the case of `CC(=O)N1CCN(c2ccc(OCC3COC(Cn4ccnc4)(c4ccc(Cl)cc4Cl)O3)cc2)CC1` (stereo unspecified) [KETOCONAZOLE], the “inhibition (INH)” value on Cytochrome P450 3A2 [13] is “Active”.

By IC50 is commonly meant the midpoint of a concentration-inhibition curve. What is called Ki is the equilibrium dissociation constant of an inhibitor or competing ligand from its target.
